Experimental findings from US12011444B2, “N-substituted indole derivatives as PGE2 receptor modulators” (Idorsia Pharmaceuticals Ltd, priority 2015, dated 2024) are described below.

One assay has as its target PTRGER4 (EP4) (Homo sapiens (Human), UniProt P35408). Put plainly: hEP4 b-arrestin assay (PathHunter HEK 293 PTGER4 b-arrestin cells). It counts as cell-based. Conditions: antagonistic activity on hEP4; mean where measured multiple times. In a few lines: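 Antagonist mode: compound is given 15 min at 37 °C, then 20 nM (final) PGE2 for 120 min, in HEK293 cells stably expressing EP4 fused to ProLink and β-arrestin 2 fused to EA. Recruitment read as β-gal luminescence after 1 h reagent at room temperature, as percent of DMSO control.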

Another assay deals with PTGER2 (EP2) (Homo sapiens (Human), UniProt P43116). Put plainly: hEP2 b-arrestin assay (PathHunter HEK 293 PTGER2 b-arrestin cells). The note with it: antagonistic activity on hEP2; mean where measured multiple times. Type of assay: cell-based. In outline:
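Readout is β-galactosidase complementation luminescence, expressed as percent of DMSO control (duplicates). PathHunter HEK293 EP2/β-arrestin 2 cells, grown 24 h, received compound for 15 min at 37 °C before a 120 min challenge with PGE2 at 5 μM final, followed by 1 h detection at room temperature.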

Molecules are shown by their SMILES. pIC50: −log10 of the molar value.

PTRGER4 (EP4), sequence (P35408 whole entry, looked up, the tested form may be a part): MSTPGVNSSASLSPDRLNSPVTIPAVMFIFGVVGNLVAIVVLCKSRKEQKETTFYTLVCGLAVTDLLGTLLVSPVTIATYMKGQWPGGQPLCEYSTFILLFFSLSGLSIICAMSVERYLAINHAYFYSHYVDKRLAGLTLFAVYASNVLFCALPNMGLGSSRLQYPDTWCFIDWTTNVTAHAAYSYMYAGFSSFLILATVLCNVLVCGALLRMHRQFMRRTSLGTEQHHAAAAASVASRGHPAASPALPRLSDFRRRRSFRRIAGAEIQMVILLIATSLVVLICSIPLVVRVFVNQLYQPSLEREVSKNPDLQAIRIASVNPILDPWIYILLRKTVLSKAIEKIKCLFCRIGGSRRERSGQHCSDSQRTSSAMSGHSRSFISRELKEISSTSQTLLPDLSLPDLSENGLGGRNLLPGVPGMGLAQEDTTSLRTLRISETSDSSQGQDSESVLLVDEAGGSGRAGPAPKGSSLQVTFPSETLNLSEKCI
PTGER2 (EP2), sequence (P43116 whole entry): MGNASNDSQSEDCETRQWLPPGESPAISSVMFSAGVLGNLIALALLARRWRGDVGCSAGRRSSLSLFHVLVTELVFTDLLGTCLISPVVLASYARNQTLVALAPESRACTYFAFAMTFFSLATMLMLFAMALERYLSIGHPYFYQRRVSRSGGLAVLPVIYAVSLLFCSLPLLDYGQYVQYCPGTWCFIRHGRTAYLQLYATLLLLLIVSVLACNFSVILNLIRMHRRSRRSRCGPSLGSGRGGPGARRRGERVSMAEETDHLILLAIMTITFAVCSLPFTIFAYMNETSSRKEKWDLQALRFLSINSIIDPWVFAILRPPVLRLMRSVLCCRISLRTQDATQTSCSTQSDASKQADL

As to `COc1ccc(F)c2c1cc(C)n2CCNc1cc(-c2ccc3cc[nH]c3c2)ncn1` [compound 68, [2-(7-Fluoro-4-methoxy-2-methyl-indol-1-yl)-ethyl]-[6-(1H-indol-6-yl)-pyrimidin-4-yl]-amine], the pIC50 on PTRGER4 (EP4) is 6.41; on PTGER2 (EP2), 7.62.
In the same order, the values of `Cc1cc(F)cc2c1cc(C)n2CCNc1cc(-c2ccc(-c3c[nH]cn3)cc2)ncn1` [compound 69, [2-(6-Fluoro-2,4-dimethyl-indol-1-yl)-ethyl]-{6-[4-(1H-imidazol-4-yl)-phenyl]-pyrimidin-4-yl}-amine] are 7.03 and 7.54.
As to `Cc1ccc(F)c2c1cc(C)n2CCNc1cc(-c2ccc(-c3ccn[nH]3)cc2)ncn1` [compound 70, [2-(7-Fluoro-2,4-dimethyl-indol-1-yl)-ethyl]-{6-[4-(2H-pyrazol-3-yl)-phenyl]-pyrimidin-4-yl}-amine], the pIC50 against PTRGER4 (EP4) is 6.84; against PTGER2 (EP2) it was 7.48.
In the same order, the values of `Cc1ccc(F)c2c1cc(C)n2CCNc1cc(-c2ccc(-c3ncc[nH]3)cc2)ncn1` [compound 71] are 6.12 and 7.07.
On to `Cc1ccc(F)c2c1cc(C)n2CCNc1cc(-c2ccc(-c3c[nH]cn3)cc2)ncn1` [compound 72, [2-(7-Fluoro-2,4-dimethyl-indol-1-yl)-ethyl]-{6-[4-(1H-imidazol-4-yl)-phenyl]-pyrimidin-4-yl}-amine], for which the pIC50 on PTRGER4 (EP4) is 7.55; on PTGER2 (EP2) it was 7.35.
As to `Cc1ccc(F)c2c1cc(C)n2CCNc1cc(-c2ccc(-n3cccn3)cc2)ncn1` [compound 73], the pIC50 was 6.01 on PTRGER4 (EP4) and 6.67 against PTGER2 (EP2).
With `COc1ccc(F)c2c1cc(C)n2CCNc1cc(-c2ccc3[nH]c(=O)[nH]c3c2)ncn1` [compound 74, 5-{6-[2-(7-Fluoro-4-methoxy-2-methyl-indol-1-yl)-ethylamino]-pyrimidin-4-yl}-1,3-dihydro-2H-benzo[d]imidazol-2-one], the pIC50 is 6.04 at PTRGER4 (EP4) and 7.35 against PTGER2 (EP2).
In the same order, the values of `COc1cccc2c1cc(C)n2CCNc1cc(-c2ccc(-c3ccn[nH]3)cc2)ncn1` [compound 75, [2-(4-Methoxy-2-methyl-indol-1-yl)-ethyl]-{6-[4-(2H-pyrazol-3-yl)-phenyl]-pyrimidin-4-yl}-amine] are 7.02 and 8.15.
Regarding `COc1cccc2c1cc(C)n2CCNc1cc(-c2ccc(-c3ncc[nH]3)cc2)ncn1` [compound 76, {6-[4-(1H-Imidazol-2-yl)-phenyl]-pyrimidin-4-yl}-[2-(4-methoxy-2-methyl-indol-1-yl)-ethyl]-amine], the values for the pIC50 against PTRGER4 (EP4) and against PTGER2 (EP2) were 6.19 and 7.68, respectively.
The like results for `COc1cccc2c1cc(C)n2CCNc1cc(-c2ccc(-c3c[nH]cn3)cc2)ncn1` [compound 77, {6-[4-(1H-Imidazol-4-yl)-phenyl]-pyrimidin-4-yl}-[2-(4-methoxy-2-methyl-indol-1-yl)-ethyl]-amine] were, in that order, 7.05 and 8.10.
In the same order, the values of `COc1cccc2c1cc(C)n2CCNc1cc(-c2ccc(-n3cccn3)cc2)ncn1` [compound 78, [2-(4-Methoxy-2-methyl-indol-1-yl)-ethyl]-[6-(4-pyrazol-1-yl-phenyl)-pyrimidin-4-yl]-amine] are 6.25 and 7.70.
With `Cc1ccc(F)c2c1cc(C)n2CCNc1cc(-c2ccc(-c3ncno3)cc2)ncn1` [compound 79, [2-(7-Fluoro-2,4-dimethyl-indol-1-yl)-ethyl]-[6-(4-[1,2,4]oxadiazol-5-yl-phenyl)-pyrimidin-4-yl]-amine], the pIC50 against PTRGER4 (EP4) was 6.71; against PTGER2 (EP2), 7.96.
On to `COc1ccc(Cl)c2c1cc(C)n2CCNc1cc(-c2ccc3[nH]c(C)nc3c2)ncn1` [compound 80], for which the pIC50 at PTRGER4 (EP4) is 6.15; against PTGER2 (EP2) it was 6.62.
As to `COc1ccc(F)c2c1cc(C)n2CCNc1cc(-c2ccc3[nH]c(C)nc3c2)ncn1` [compound 81, [2-(7-Fluoro-4-methoxy-2-methyl-indol-1-yl)-ethyl]-[6-(2-methyl-1H-benzoimidazol-5-yl)-pyrimidin-4-yl]-amine], the pIC50 is 7.07 on PTRGER4 (EP4) and 7.36 at PTGER2 (EP2).
On to `COc1ccc(Cl)c2c1cc(C)n2CCNc1cc(-c2ccc3cnn(C)c3c2)ncn1` [compound 82], for which the figures for the pIC50 against PTRGER4 (EP4) and at PTGER2 (EP2) were 6.01 and 6.71, respectively.
In the same order, the values of `Cc1cc(F)cc2c1cc(C)n2CCNc1cc(-c2ccc(-c3ccns3)cc2)ncn1` [compound 84] are 6.51 and 7.05.
As for `COc1cccc2c1cc(C)n2CCNc1cc(-c2ccc3c(c2)CN(C)C3=O)ncn1` [compound 87], the pIC50 was 6.05 on PTRGER4 (EP4) and 6.92 on PTGER2 (EP2).
The like results for `COc1cc(F)cc2c1cc(C)n2CCNc1cc(-c2ccc3c(c2)CC(=O)N3)ncn1` [compound 88] were, in that order, 6.73 and 7.27.
In the same order, the values of `COc1ccc(F)c2c1cc(C)n2CCNc1cc(-c2ccc3nc(C)oc3c2)ncn1` [compound 89] are 6.88 and 6.94.
In the case of `COc1ccc(F)c2c1cc(C)n2CCNc1cc(-c2ccc3c(c2)CNC3=O)ncn1` [compound 90, 5-{6-[2-(7-Fluoro-4-methoxy-2-methyl-indol-1-yl)-ethylamino]-pyrimidin-4-yl}-2,3-dihydro-isoindol-1-one], the pIC50 against PTRGER4 (EP4) is 6.34; at PTGER2 (EP2) it was 8.15.
As for `COc1ccc(F)c2c1cc(C)n2CCNc1cc(-c2ccc3c(c2)CC(=O)N3)ncn1` [compound 91, 5-{6-[2-(7-Fluoro-4-methoxy-2-methyl-indol-1-yl)-ethylamino]-pyrimidin-4-yl}-1,3-dihydro-indol-2-one], the pIC50 on PTRGER4 (EP4) was 6.84; at PTGER2 (EP2), 7.49.
As to `COc1cc(F)c(F)c2c1cc(C)n2CCNc1cc(-c2ccc3cc[nH]c3c2)ncn1` [compound 92, [2-(6,7-Difluoro-4-methoxy-2-methyl-indol-1-yl)-ethyl]-[6-(1H-indol-6-yl)-pyrimidin-4-yl]-amine], the figures for the pIC50 at PTRGER4 (EP4) and on PTGER2 (EP2) were 6.45 and 7.32, respectively.
In the same order, the values of `Cc1cc(F)c(F)c2c1cc(C)n2CCNc1cc(-c2ccc3c(c2)CC(=O)N3)ncn1` [compound 93] are 6.32 and 6.74.
The like results for `Cc1cc(F)cc2c1cc(C)n2CCNc1cc(-c2ccc(-c3ccon3)cc2)ncn1` [compound 94, [2-(6-Fluoro-2,4-dimethyl-indol-1-yl)-ethyl]-[6-(4-isoxazol-3-yl-phenyl)-pyrimidin-4-yl]-amine] were, in that order, 6.52 and 7.52.
Turning to `Cc1ccc(F)c2c1cc(C)n2CCNc1cc(-c2ccc3c(c2)CN(C)C3=O)ncn1` [compound 95], the values for the pIC50 on PTRGER4 (EP4) and on PTGER2 (EP2) were 6.78 and 7.23, respectively.
For `Cc1ccc(F)c2c1cc(C)n2CCNc1cc(-c2ccc(-c3cnco3)cc2)ncn1` [compound 97], the pIC50 against PTRGER4 (EP4) is 6.28; against PTGER2 (EP2), 6.75.
In the same order, the values of `COc1cccc2c1cc(C)n2CCNc1cc(-c2ccc(-c3cscn3)cc2)ncn1` [compound 98, [2-(4-Methoxy-2-methyl-indol-1-yl)-ethyl]-[6-(4-thiazol-4-yl-phenyl)-pyrimidin-4-yl]-amine] are 6.64 and 8.15.
In the same order, the values of `Cc1ccc(F)c2c1cc(C)n2CCNc1cc(-c2ccc(-c3nnc[nH]3)cc2)ncn1` [compound 99] are 6.91 and 6.95.

In general, pIC50 refers to the negative decadic logarithm of the IC50, by convention in mol/L.
